Entries after “also recorded” stand apart in the source; their conditions may differ.
Columns and labels:
[1] = Stability / hygroscopicity at ambient room temperature and humidity; assay type: physicochemical; settings: for stability at standard room temperature and humidity (ambient conditions): Preparation 3 after about 5 hours standing, TGA
Method: The partially dehydrated material was allowed to stand for about 5 hours.

[2] = cited from earlier work
[3] = Solubility measured visually; settings: relative to crystalline lisinopril dihydrate (Zestril)

Q: For `NCCCC[C@H](N[C@@H](CCc1ccccc1)C(=O)O)C(=O)N1CCC[C@H]1C(=O)O.O` [Preparation 3], which “stability at standard room temperature and humidity (ambient conditions)” value (“stability” below) [1] is on record?
A: not a stable monohydrate

Q: And the hygroscopicity ([1]; crystals returned to room temperature after heating, evolved water reabsorbed from atmosphere)?
A: strongly hygroscopic

Q: Which results are given for `NCCCC[C@H](N[C@@H](CCc1ccccc1)C(=O)O)C(=O)N1CCC[C@H]1C(=O)O` [lisinopril]?
A: time to peak serum concentrations ([2]; following oral administration): ≤ 7 h; effective half-life of accumulation ([2]; multiple dosing): about 12.6 hours

Q: Which “stability” value ([1]; listed as form 1) does the source give for `NCCCC[C@H](N[C@@H](CCc1ccccc1)C(=O)O)C(=O)N1CCC[C@H]1C(=O)O.O` [monohydrate lisinopril form 1] here?
A: stable

Q: Which “solubility compared with lisinopril dihydrate” value [3] does the source give for `NCCCC[C@H](N[C@@H](CCc1ccccc1)C(=O)O)C(=O)N1CCC[C@H]1C(=O)O` [monohydrate lisinopril form 2, 1-(N^2-[(S)-1-carboxy-3-phenylpropyl]-L-lysyl)-L-proline] here?
A: far greater solubility; also recorded: much more soluble; also recorded: substantially more soluble

Q: What about the “stability” value [1] of the same compound?
A: stable

Q: What about the solubility (physchem) of the same compound?
A: 400 to 450 mg/mL
